This experiment deals with P388 leukemia ip, CD2F1 mice, survival T/C. Put plainly: NCI In Vivo Anticancer Drug Screen. Data for tumor model P388 Leukemia (intraperitoneal) in CD2F1 (CDF1) mice. To be noted: endpoint: median survival time, higher = longer survival. In outline:
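Mice carrying the transplanted tumor received test compound or vehicle. Survival was recorded in each group, and the value is the treated-group measurement divided by that of the vehicle-treated control group.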

Where [1] appears, read: dose: 50.0 mg/kg/injection, schedule: Q01DX005 (ip), vehicle: saline with Tween-80.
The mark [2] stands for this setting: dose: 50.0 mg/kg/injection, schedule: Q01DX009 (ip), vehicle: saline.
Setting [3] is: dose: 100.0 mg/kg/injection, schedule: Q01DX009 (ip), vehicle: saline.
The mark [4] stands for this setting: dose: 200.0 mg/kg/injection, schedule: Q01DX009 (ip), vehicle: saline.
The mark [5] stands for this setting: dose: 60.0 mg/kg/injection, schedule: Q01DX005 (ip), vehicle: saline with Tween-80.
The mark [6] stands for this setting: dose: 120.0 mg/kg/injection, schedule: Q01DX005 (ip), vehicle: saline with Tween-80.
The mark [7] stands for this setting: dose: 240.0 mg/kg/injection, schedule: Q01DX005 (ip), vehicle: saline with Tween-80.

Each structure is given as a SMILES string. Where “and” joins values, the source holds several entries; their conditions need not be identical. Equal entries are not always repeated. Toxic doses and inconclusive results are not listed.

Turning to `Cc1ccc(C(=O)[Se][Se]C(=O)c2ccc(C)cc2)cc1`, the T/C (dose: 6.25 mg/kg/injection, schedule: Q01DX009 (ip), vehicle: saline with Tween-80) is 98 % of control; the T/C (dose: 12.5 mg/kg/injection, schedule: Q01DX009 (ip), vehicle: saline with Tween-80) was 117 % of control; the T/C (dose: 25.0 mg/kg/injection, schedule: Q01DX009 (ip), vehicle: saline with Tween-80) was 104 % of control and 112 % of control.

For `COc1cc2ccncc2cc1Oc1c(OC)c(OC)cc2ccncc12`, the T/C (dose: 60.0 mg/kg/injection, schedule: Q01DX005 (ip), vehicle: Klucel (hydroxypropylcellulose) (HPC)) is 100 % of control; the T/C (dose: 120.0 mg/kg/injection, schedule: Q01DX005 (ip), vehicle: Klucel (hydroxypropylcellulose) (HPC)) is 90 % of control; the T/C (dose: 240.0 mg/kg/injection, schedule: Q01DX005 (ip), vehicle: Klucel (hydroxypropylcellulose) (HPC)) is 100 % of control.

Take `CC1OC(C)(C)OC1C(=O)O` (stereo unspecified): the T/C is 89 % of control (dose: 3.13 mg/kg/injection, schedule: Q01DX009 (ip), vehicle: Klucel (hydroxypropylcellulose) (HPC)); 95 % of control (dose: 6.25 mg/kg/injection, schedule: Q01DX009 (ip), vehicle: Klucel (hydroxypropylcellulose) (HPC)); 92 % of control (dose: 12.5 mg/kg/injection, schedule: Q01DX009 (ip), vehicle: Klucel (hydroxypropylcellulose) (HPC)); 89 % of control (dose: 25.0 mg/kg/injection, schedule: Q01DX009 (ip), vehicle: Klucel (hydroxypropylcellulose) (HPC)); 89 % of control (dose: 50.0 mg/kg/injection, schedule: Q01DX009 (ip), vehicle: Klucel (hydroxypropylcellulose) (HPC)).

Regarding `Nc1nc(N)c2cc(Sc3cccc(C(F)(F)F)c3)ccc2n1`, the T/C by setting is: (dose: 100.0 mg/kg/injection, schedule: Q01DX009 (ip), vehicle: saline with Tween-80) 172 % of control; (dose: 200.0 mg/kg/injection, schedule: Q01DX009 (ip), vehicle: saline with Tween-80) 94 % of control.

Take `C/C(=N\NC(=S)N1CC(C)OC(C)C1)c1cnccn1` (stereo unspecified): the T/C (dose: 12.5 mg/kg/injection, schedule: Q01DX005 (ip), vehicle: saline with Tween-80) is 107 % of control; the T/C (dose: 25.0 mg/kg/injection, schedule: Q01DX005 (ip), vehicle: saline with Tween-80) is 100 % of control; the T/C under setting [1] was 101 % of control and 97 % of control.

On to `NC(=O)c1c(-c2ccccc2)nc2sccn12`, for which the T/C (dose: 100.0 mg/kg/injection, schedule: Q01DX001 (ip), vehicle: Klucel (hydroxypropylcellulose) (HPC)) is 98 % of control; the T/C (dose: 200.0 mg/kg/injection, schedule: Q01DX001 (ip), vehicle: Klucel (hydroxypropylcellulose) (HPC)) was 90 % of control; the T/C (dose: 400.0 mg/kg/injection, schedule: Q01DX001 (ip), vehicle: Klucel (hydroxypropylcellulose) (HPC)) is 92 % of control.

For the compound `O=C(Oc1ccc[nH]c1=O)C1CC1`, the T/C runs as follows: (dose: 12.5 mg/kg/injection, schedule: Q01DX009 (ip), vehicle: saline) 99 % of control and 100 % of control; (dose: 25.0 mg/kg/injection, schedule: Q01DX009 (ip), vehicle: saline) 101 % of control and 102 % of control; under setting [2], 98 % of control and 108 % of control; under setting [3], 103 % of control and 106 % of control; under setting [4], 107 % of control and 117 % of control; (dose: 400.0 mg/kg/injection, schedule: Q01DX009 (ip), vehicle: saline) 100 % of control.

Take `O=C(CCCCC(=O)N/N=C/c1ccco1)N/N=C/c1ccco1`: the T/C is 99 % of control under setting [5], 94 % of control under setting [6] and 91 % of control under setting [7].

Regarding `CNC(=O)NS(=O)(=O)c1cnccc1Cl`, the T/C was 97 % of control (dose: 100.0 mg/kg/injection, schedule: Q01DX001 (ip), vehicle: saline with Tween-80); 100 % of control (dose: 200.0 mg/kg/injection, schedule: Q01DX001 (ip), vehicle: saline with Tween-80); 97 % of control (dose: 400.0 mg/kg/injection, schedule: Q01DX001 (ip), vehicle: saline with Tween-80).

`CC(=O)O[C@H]1CC[C@]2(C=O)[C@H]3CC[C@]4(C)[C@@H](C5=CC(=O)OC5)CC[C@]4(O)[C@@H]3CC[C@]2(O)C1`: the T/C reads like this: (dose: 12.5 mg/kg/injection, schedule: Q04DX002 (ip), vehicle: saline) 94 % of control; (dose: 25.0 mg/kg/injection, schedule: Q04DX002 (ip), vehicle: saline) 94 % of control; (dose: 50.0 mg/kg/injection, schedule: Q04DX002 (ip), vehicle: saline) 100 % of control; (dose: 100.0 mg/kg/injection, schedule: Q04DX002 (ip), vehicle: saline) 91 % of control.

As for `Nc1nc(N)c2ncn(Cc3c(Cl)cccc3Cl)c2n1`, the T/C runs as follows: (dose: 50.0 mg/kg/injection, schedule: Q01DX005 (ip), vehicle: distilled water + alcohol) 95 % of control; (dose: 100.0 mg/kg/injection, schedule: Q01DX005 (ip), vehicle: distilled water + alcohol) 97 % of control; (dose: 200.0 mg/kg/injection, schedule: Q01DX005 (ip), vehicle: distilled water + alcohol) 93 % of control.

Consider `O=C(CNC(=O)Nc1ccc(Cl)c(Cl)c1)N/N=C/C=C/c1ccccc1`, for which the T/C was 96 % of control (dose: 15.0 mg/kg/injection, schedule: Q01DX005 (ip), vehicle: saline with Tween-80) and 87 % of control (dose: 30.0 mg/kg/injection, schedule: Q01DX005 (ip), vehicle: saline with Tween-80).

For `COc1cc2c(cc1C(C)c1cc(C)c(OC)c(C)c1)OCO2` (stereo unspecified), the T/C is 100 % of control under setting [1]; 106 % of control (dose: 100.0 mg/kg/injection, schedule: Q01DX005 (ip), vehicle: saline with Tween-80); 101 % of control (dose: 200.0 mg/kg/injection, schedule: Q01DX005 (ip), vehicle: saline with Tween-80).

Regarding `O=C(/C=C/c1ccco1)c1ccc(Cl)cc1`, the T/C is 100 % of control (dose: 50.0 mg/kg/injection, schedule: Q01DX001 (ip), vehicle: saline sonified); 95 % of control (dose: 100.0 mg/kg/injection, schedule: Q01DX001 (ip), vehicle: saline sonified); 100 % of control (dose: 200.0 mg/kg/injection, schedule: Q01DX001 (ip), vehicle: saline sonified).

On to `Cc1cc2cc(O)c3c(=O)c4c(O)cccc4c(=O)c3c2c(=O)c1=O`, for which the T/C is, setting by setting: (dose: 3.12 mg/kg/injection, schedule: Q01DX005 (ip), vehicle: other) 101 % of control; (dose: 6.25 mg/kg/injection, schedule: Q01DX005 (ip), vehicle: other) 107 % of control; (dose: 12.5 mg/kg/injection, schedule: Q01DX005 (ip), vehicle: other) 100 % of control; (dose: 25.0 mg/kg/injection, schedule: Q01DX005 (ip), vehicle: other) 104 % of control.

Consider `COc1ccc2oc(-c3ccc(Cl)cc3)c(N3CCN(C)CC3)c2c1`, for which the T/C by setting is: (dose: 60.0 mg/kg/injection, schedule: Q01DX005 (ip), vehicle: saline) 102 % of control and 93 % of control and 97 % of control; (dose: 120.0 mg/kg/injection, schedule: Q01DX005 (ip), vehicle: saline) 102 % of control and 103 % of control and 105 % of control; (dose: 240.0 mg/kg/injection, schedule: Q01DX005 (ip), vehicle: saline) 122 % of control and 96 % of control.

Regarding `OCC1OC(n2cnc3c(SCc4ccccn4)ncnc32)C(O)C1O` (stereo unspecified), the T/C was 109 % of control (dose: 12.5 mg/kg/injection, schedule: Q04DX003 (ip), vehicle: saline with Tween-80); 96 % of control (dose: 25.0 mg/kg/injection, schedule: Q04DX003 (ip), vehicle: saline with Tween-80); 99 % of control (dose: 50.0 mg/kg/injection, schedule: Q04DX003 (ip), vehicle: saline with Tween-80); 96 % of control (dose: 100.0 mg/kg/injection, schedule: Q04DX003 (ip), vehicle: saline with Tween-80).

As to `O/N=C(/Cc1nc2cc(Cl)c(Cl)cc2nc1C/C(=N/O)c1ccc(Cl)cc1)c1ccc(Cl)cc1`, the T/C is 99 % of control under setting [5], 99 % of control under setting [6] and 107 % of control under setting [7].

`COc1ccc(/C=N/SC(c2ccccc2)(c2ccccc2)c2ccccc2)cc1`: the T/C was 111 % of control (dose: 100.0 mg/kg/injection, schedule: Q04DX002 (ip), vehicle: saline with Tween-80); 99 % of control (dose: 200.0 mg/kg/injection, schedule: Q04DX002 (ip), vehicle: saline with Tween-80); 92 % of control (dose: 400.0 mg/kg/injection, schedule: Q04DX002 (ip), vehicle: saline with Tween-80).

Regarding `COc1ccc(C)cc1NC(=O)/N=C1/NC(=O)CS1`, the T/C reads like this: under setting [2], 91 % of control; under setting [3], 97 % of control; under setting [4], 91 % of control.

Source of the values: PubChem BioAssay AID330 (DTP/NCI, 2004).
